Read-outs that look alike come from different tables or passages of the source.
Legend:
[1] = biological target: CDK3/Cyclin E1 (Homo sapiens, UniProt Q00526); assay: NanoBRET live-cell target engagement, CDK3-NanoLuc/Cyclin E1 in HEK-293; format: binding; conditions: CDK3/E1
[2] = biological target: CDK4/Cyclin D1 (Homo sapiens, UniProt P11802); assay: NanoBRET live-cell target engagement, NanoLuc-CDK4/Cyclin D1 in HEK-293; format: binding; conditions: CDK4/D1; for IC50: read-out: IC50
[3] = biological target: CDK5/CDK5R1 (Homo sapiens, UniProt Q00535); assay: NanoBRET live-cell target engagement, CDK5-NanoLuc/CDK5R1 in HEK-293; format: binding; conditions: CDK5/CDK5R1
[4] = biological target: CDK6/Cyclin D1 (Homo sapiens, UniProt Q00534); assay: NanoBRET live-cell target engagement, NanoLuc-CDK6/Cyclin D1 in HEK-293; format: binding; conditions: CDK6/D1; for IC50: read-out: IC50
Chain of CDK6/Cyclin D1 (Q00534 whole entry): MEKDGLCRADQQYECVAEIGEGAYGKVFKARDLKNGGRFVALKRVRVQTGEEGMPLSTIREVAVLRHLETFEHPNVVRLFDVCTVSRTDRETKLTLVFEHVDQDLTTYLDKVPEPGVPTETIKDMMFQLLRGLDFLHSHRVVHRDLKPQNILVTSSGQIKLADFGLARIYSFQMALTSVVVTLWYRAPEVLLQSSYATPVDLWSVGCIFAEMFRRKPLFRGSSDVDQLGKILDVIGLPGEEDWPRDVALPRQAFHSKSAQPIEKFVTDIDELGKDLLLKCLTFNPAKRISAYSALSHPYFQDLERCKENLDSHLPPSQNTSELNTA
Chain of CDK6/Cyclin D1 (P24385 whole entry partner): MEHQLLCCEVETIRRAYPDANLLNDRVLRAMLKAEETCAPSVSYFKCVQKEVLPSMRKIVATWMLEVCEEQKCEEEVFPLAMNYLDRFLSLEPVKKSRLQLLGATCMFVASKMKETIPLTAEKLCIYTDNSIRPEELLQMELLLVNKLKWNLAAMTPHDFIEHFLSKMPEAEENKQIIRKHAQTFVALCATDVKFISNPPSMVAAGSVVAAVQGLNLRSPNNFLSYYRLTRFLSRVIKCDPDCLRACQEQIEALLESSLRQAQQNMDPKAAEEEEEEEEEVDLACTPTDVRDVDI

[5] = biological target: CDK8/Cyclin C (Homo sapiens, UniProt P49336); assay: NanoBRET live-cell target engagement, NanoLuc-CDK8/Cyclin C in HEK-293; format: binding; conditions: CDK8/C
[6] = biological target: T1, CDK11A/Cyclin L2 (Homo sapiens, UniProt Q9UQ88); assay: NanoBRET live-cell target engagement, CDK11A-NanoLuc/Cyclin L2 in HEK-293; format: binding; conditions: CDK11a/L2
T1 sequence (Q9UQ88 1-783): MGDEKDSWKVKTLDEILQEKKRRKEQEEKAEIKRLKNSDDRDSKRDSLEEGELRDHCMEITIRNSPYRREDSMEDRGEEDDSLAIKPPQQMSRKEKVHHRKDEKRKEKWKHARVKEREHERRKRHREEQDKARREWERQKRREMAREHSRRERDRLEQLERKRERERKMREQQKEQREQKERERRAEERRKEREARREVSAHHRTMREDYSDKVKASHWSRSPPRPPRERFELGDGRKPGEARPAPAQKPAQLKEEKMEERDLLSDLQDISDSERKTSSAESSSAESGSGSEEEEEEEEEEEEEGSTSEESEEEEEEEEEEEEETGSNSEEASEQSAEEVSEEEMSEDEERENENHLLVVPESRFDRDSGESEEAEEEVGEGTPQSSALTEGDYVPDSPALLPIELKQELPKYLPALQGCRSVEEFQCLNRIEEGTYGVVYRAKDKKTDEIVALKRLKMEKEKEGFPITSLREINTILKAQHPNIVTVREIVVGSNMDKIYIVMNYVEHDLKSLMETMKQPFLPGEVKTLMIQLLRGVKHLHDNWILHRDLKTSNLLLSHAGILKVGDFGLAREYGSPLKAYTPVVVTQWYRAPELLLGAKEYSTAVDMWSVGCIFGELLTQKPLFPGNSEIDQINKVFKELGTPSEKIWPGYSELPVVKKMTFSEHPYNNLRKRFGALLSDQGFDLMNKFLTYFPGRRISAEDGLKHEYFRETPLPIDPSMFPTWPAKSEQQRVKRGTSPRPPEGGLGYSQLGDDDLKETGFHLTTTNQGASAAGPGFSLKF

[7] = biological target: CDK11B/Cyclin L2 (Homo sapiens, UniProt P21127); assay: NanoBRET live-cell target engagement, CDK11B-NanoLuc/Cyclin L2 in HEK-293; format: binding; conditions: CDK11b/L2
Chain of CDK11B/Cyclin L2 (P21127 1-782 isoform P21127-2): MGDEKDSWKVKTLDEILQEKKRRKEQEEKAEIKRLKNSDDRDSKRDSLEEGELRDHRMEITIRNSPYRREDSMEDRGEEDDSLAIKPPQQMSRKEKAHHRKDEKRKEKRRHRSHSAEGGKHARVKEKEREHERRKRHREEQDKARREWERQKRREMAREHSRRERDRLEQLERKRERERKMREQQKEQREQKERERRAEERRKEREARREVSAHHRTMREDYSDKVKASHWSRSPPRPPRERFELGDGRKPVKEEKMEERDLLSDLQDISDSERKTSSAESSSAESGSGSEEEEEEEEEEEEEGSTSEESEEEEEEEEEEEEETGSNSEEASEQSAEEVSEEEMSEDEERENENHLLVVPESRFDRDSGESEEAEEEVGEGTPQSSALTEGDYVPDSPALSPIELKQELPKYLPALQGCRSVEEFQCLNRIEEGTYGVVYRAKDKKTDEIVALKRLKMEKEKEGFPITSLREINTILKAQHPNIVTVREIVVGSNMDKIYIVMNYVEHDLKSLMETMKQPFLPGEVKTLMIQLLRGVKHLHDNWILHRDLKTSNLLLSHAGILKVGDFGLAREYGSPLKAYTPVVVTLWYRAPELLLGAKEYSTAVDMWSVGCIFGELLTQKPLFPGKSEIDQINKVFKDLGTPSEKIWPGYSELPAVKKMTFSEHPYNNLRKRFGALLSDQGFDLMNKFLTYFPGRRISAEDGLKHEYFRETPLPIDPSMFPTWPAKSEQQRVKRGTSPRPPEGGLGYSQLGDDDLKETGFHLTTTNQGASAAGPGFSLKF

[8] = biological target: CDK12/Cyclin K (Homo sapiens, UniProt Q9NYV4); assay: NanoBRET live-cell target engagement, CDK12-NanoLuc/Cyclin K in HEK-293; format: binding; conditions: CDK12/K
[9] = biological target: CDK13/Cyclin K (Homo sapiens, UniProt Q14004); assay: NanoBRET live-cell target engagement, CDK13-NanoLuc/Cyclin K in HEK-293; format: binding; conditions: CDK13/K
Chain of CDK13/Cyclin K (O75909 whole entry): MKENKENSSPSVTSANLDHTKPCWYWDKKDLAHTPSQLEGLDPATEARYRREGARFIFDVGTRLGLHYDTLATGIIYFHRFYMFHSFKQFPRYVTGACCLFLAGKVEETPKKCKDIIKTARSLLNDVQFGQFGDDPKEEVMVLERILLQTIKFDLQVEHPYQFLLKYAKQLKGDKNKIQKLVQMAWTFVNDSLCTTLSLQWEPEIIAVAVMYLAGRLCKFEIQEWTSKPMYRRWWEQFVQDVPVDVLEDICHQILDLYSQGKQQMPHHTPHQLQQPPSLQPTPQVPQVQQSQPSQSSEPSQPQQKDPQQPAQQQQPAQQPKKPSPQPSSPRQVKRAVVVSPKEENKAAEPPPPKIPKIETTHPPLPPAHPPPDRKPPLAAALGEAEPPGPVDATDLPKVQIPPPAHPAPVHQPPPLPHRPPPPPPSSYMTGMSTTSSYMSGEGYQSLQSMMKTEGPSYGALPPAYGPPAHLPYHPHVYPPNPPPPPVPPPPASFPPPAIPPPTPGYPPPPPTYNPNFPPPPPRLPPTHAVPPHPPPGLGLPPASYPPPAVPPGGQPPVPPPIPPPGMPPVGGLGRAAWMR
Chain of CDK13/Cyclin K (Q14004 other isoform, or with tags, fused parts or gaps): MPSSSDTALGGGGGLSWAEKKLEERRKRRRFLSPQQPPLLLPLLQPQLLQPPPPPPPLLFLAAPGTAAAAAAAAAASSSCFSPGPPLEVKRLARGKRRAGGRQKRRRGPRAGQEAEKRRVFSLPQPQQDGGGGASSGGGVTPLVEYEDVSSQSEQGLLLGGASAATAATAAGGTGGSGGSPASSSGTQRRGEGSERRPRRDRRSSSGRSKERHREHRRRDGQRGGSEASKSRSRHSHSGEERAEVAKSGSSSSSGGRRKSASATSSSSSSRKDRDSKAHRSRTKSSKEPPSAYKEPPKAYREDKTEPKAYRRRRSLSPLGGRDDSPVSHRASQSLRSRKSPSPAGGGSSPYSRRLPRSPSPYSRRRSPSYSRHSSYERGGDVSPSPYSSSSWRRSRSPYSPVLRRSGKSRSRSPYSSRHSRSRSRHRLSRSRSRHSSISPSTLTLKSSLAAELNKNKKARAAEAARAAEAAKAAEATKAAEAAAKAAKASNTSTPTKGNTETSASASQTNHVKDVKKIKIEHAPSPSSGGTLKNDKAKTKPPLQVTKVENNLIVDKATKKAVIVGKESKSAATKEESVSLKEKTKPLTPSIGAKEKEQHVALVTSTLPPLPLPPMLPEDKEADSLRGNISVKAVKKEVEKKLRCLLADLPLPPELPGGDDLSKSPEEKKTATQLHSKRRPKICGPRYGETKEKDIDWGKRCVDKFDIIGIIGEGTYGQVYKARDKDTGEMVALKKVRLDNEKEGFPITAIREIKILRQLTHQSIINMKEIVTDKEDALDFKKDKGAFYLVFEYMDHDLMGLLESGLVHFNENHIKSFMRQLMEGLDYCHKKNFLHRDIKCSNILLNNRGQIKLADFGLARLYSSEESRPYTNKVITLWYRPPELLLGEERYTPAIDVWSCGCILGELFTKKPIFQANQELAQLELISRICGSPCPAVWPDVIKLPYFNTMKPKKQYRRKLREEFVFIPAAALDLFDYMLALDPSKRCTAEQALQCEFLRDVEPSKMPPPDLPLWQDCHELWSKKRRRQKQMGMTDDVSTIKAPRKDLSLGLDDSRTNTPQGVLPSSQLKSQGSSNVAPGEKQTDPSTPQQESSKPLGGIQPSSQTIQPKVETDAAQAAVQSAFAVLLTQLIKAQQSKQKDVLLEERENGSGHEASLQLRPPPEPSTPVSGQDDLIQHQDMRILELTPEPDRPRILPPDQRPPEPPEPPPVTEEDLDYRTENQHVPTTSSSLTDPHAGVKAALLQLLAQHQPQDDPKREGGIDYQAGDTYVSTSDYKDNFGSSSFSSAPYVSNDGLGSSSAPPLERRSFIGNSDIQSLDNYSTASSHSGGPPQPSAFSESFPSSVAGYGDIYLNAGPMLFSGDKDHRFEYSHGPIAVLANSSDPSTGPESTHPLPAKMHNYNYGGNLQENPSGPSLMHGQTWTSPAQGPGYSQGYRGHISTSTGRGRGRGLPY

[10] = biological target: CDK14/Cyclin Y (Homo sapiens, UniProt O94921); assay: NanoBRET live-cell target engagement, CDK14-NanoLuc/Cyclin Y in HEK-293; format: binding; conditions: CDK14/Y; for IC50: read-out: IC50
[11] = biological target: CDK15/Cyclin Y (Homo sapiens, UniProt Q96Q40); assay: NanoBRET live-cell target engagement, NanoLuc-CDK15/Cyclin Y in HEK-293; format: binding; conditions: CDK15/Y; for IC50: read-out: IC50
[12] = biological target: CDK16/Cyclin Y (Homo sapiens, UniProt Q00536); assay: NanoBRET live-cell target engagement, CDK16-NanoLuc/Cyclin Y in HEK-293; format: binding; conditions: CDK16/Y; for IC50: read-out: IC50
Chain of CDK16/Cyclin Y (Q00536 whole entry): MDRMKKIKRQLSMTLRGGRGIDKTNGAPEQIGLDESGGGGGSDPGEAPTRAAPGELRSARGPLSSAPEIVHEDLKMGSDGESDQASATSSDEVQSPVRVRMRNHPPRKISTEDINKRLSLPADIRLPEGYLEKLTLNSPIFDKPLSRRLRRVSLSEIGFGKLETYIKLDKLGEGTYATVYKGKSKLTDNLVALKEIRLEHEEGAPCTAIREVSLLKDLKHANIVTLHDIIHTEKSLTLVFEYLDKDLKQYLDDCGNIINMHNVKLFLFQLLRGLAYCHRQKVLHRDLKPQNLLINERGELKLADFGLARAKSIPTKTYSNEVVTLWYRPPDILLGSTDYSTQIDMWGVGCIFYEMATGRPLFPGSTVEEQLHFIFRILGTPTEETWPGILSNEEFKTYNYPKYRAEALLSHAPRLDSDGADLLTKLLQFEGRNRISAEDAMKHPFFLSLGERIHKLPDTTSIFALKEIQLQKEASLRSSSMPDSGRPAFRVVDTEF
Chain of CDK16/Cyclin Y (Q8ND76 whole entry partner): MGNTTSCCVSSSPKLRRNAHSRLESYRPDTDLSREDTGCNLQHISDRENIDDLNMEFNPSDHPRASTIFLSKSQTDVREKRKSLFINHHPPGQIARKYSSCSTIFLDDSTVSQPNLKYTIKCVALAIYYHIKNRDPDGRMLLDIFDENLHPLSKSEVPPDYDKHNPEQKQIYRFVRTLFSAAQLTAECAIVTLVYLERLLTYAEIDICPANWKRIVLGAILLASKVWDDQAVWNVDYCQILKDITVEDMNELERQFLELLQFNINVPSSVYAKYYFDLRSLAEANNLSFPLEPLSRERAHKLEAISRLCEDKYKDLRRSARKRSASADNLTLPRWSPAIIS

[13] = biological target: CDK17/Cyclin Y (Homo sapiens, UniProt Q00537); assay: NanoBRET live-cell target engagement, CDK17-NanoLuc/Cyclin Y in HEK-293; format: binding; conditions: CDK17/Y; for IC50: read-out: IC50
Chain of CDK17/Cyclin Y (Q00537 whole entry): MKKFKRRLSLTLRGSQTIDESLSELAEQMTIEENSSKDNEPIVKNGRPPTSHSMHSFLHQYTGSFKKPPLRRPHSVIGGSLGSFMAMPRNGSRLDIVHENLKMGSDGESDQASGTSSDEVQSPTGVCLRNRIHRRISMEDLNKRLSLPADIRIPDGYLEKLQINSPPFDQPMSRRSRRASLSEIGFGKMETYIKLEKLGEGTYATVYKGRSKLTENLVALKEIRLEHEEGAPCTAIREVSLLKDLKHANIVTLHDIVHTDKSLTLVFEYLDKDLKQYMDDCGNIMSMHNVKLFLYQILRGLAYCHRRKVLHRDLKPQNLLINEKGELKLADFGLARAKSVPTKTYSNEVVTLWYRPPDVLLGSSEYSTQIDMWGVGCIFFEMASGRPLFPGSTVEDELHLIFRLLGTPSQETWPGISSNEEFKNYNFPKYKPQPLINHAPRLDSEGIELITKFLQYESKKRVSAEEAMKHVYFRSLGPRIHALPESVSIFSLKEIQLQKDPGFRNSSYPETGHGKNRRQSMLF
Chain of CDK17/Cyclin Y (Q8ND76 whole entry partner): as the sequence (Q8ND76 whole entry partner) above

[14] = biological target: CDK18/Cyclin Y (Homo sapiens, UniProt Q07002); assay: NanoBRET live-cell target engagement, CDK18-NanoLuc/Cyclin Y in HEK-293; format: binding; conditions: CDK18/Y
[15] = biological target: CDK20/Cyclin H (Homo sapiens, UniProt Q8IZL9); assay: NanoBRET live-cell target engagement, NanoLuc-CDK20/Cyclin H in HEK-293; format: binding; conditions: CDK20/H
[16] = biological target: CDK19/Cyclin C (Homo sapiens, UniProt Q9BWU1); assay: NanoBRET live-cell target engagement, NanoLuc-CDK19/Cyclin C in HEK-293
[17] = biological target: CDK10/Cyclin L2 (Homo sapiens, UniProt Q15131); assay: NanoBRET live-cell target engagement, CDK10-NanoLuc/Cyclin L2 in HEK-293; conditions: CDK10/L2

CNc1nc(C)c(-c2nc(Nc3cccc(S(N)(=O)=O)c3)ncc2F)s1 [CDKI-73]
Inhibition at 10µM (%) ([1]; average): 97.0% | Inhibition at 10µM (%) ([1]; experiment 1): 94.8% | Inhibition at 10µM (%) ([1]; experiment 2): 99.2% | Inhibition at 10µM (%) ([2]; average): 93.8% | IC50 ([2]; average (± SEM where n=3)): 12 nM | Inhibition at 10µM (%) ([2]; experiment 1): 99.0% | IC50 ([2]; experiment 1): 13 nM | Inhibition at 10µM (%) ([2]; experiment 2): 88.5% | IC50 ([2]; experiment 2): 11 nM | Inhibition at 10µM (%) ([3]; average): 90.6% | Inhibition at 10µM (%) ([3]; experiment 1): 88.4% | Inhibition at 10µM (%) ([3]; experiment 2): 92.7% | Inhibition at 10µM (%) ([4]; average): 99.1% | IC50 ([4]; average (± SEM where n=3)): 14 nM | Inhibition at 10µM (%) ([4]; experiment 1): 98.8% | IC50 ([4]; experiment 1): 22 nM | Inhibition at 10µM (%) ([4]; experiment 2): 99.3% | IC50 ([4]; experiment 2): 6.6 nM | Inhibition at 10µM (%) ([5]; average): 89.5% | Inhibition at 10µM (%) ([5]; experiment 1): 81.5% | Inhibition at 10µM (%) ([5]; experiment 2): 97.4% | Inhibition at 10µM (%) ([6]; average): 42.8% | Inhibition at 10µM (%) ([6]; experiment 1): 32.6% | Inhibition at 10µM (%) ([6]; experiment 2): 53.0% | Inhibition at 10µM (%) ([7]; average): 50.2% | Inhibition at 10µM (%) ([7]; experiment 1): 41.6% | Inhibition at 10µM (%) ([7]; experiment 2): 58.7% | Inhibition at 10µM (%) ([8]; average): 42.5% | Inhibition at 10µM (%) ([8]; experiment 1): 31.7% | Inhibition at 10µM (%) ([8]; experiment 2): 53.2% | Inhibition at 10µM (%) ([9]; average): 37.1% | Inhibition at 10µM (%) ([9]; experiment 1): 35.9% | Inhibition at 10µM (%) ([9]; experiment 2): 38.4% | Inhibition at 10µM (%) ([10]; average): 92.7% | IC50 ([10]; average (± SEM where n=3)): 48 nM | Inhibition at 10µM (%) ([10]; experiment 1): 93.7% | IC50 ([10]; experiment 1): 59 nM | Inhibition at 10µM (%) ([10]; experiment 2): 91.8% | IC50 ([10]; experiment 2): 37 nM | Inhibition at 10µM (%) ([11]; average): 92.4% | IC50 ([11]; average (± SEM where n=3)): 80 nM | Inhibition at 10µM (%) ([11]; experiment 1): 92.6% | IC50 ([11]; experiment 1): 107 nM | Inhibition at 10µM (%) ([11]; experiment 2): 92.2% | IC50 ([11]; experiment 2): 54 nM | IC50 ([12]; average (± SEM where n=3)): 4.1 nM | Inhibition at 10µM (%) ([12]; experiment 1): 92.7% | IC50 ([12]; experiment 1): 3.2 nM | Inhibition at 10µM (%) ([12]; experiment 2): 92.0% | IC50 ([12]; experiment 2): 4.9 nM | Inhibition at 10µM (%) ([13]; average): 92.2% | IC50 ([13]; average (± SEM where n=3)): 8.3 nM | Inhibition at 10µM (%) ([13]; experiment 1): 92.4% | IC50 ([13]; experiment 1): 7.8 nM | Inhibition at 10µM (%) ([13]; experiment 2): 92.0% | IC50 ([13]; experiment 2): 8.8 nM | Inhibition at 10µM (%) ([14]; experiment 1): 95.5% | Inhibition at 10µM (%) ([14]; experiment 2): 102.2% | Inhibition at 10µM (%) ([15]; experiment 1): 73.0% | Inhibition at 10µM (%) ([15]; experiment 2): 44.8% | Inhibition at 10µM (%) ([16]; CDK19/C, average): 79.0% | IC50 ([16]; CDK19/C, experiment 1): 507 nM | Inhibition at 10µM (%) ([16]; CDK19/C, experiment 1): 76.8% | IC50 ([16]; CDK19/C, experiment 2): 120 nM | Inhibition at 10µM (%) ([16]; CDK19/C, experiment 2): 81.3% | IC50 ([16]; CDK19/Y (so in the source), average (± SEM where n=3)): 310 nM | Inhibition at 10µM (%) ([17]; average): 40.1% | Inhibition at 10µM (%) ([17]; experiment 1): 36.9% | Inhibition at 10µM (%) ([17]; experiment 2): 43.3%

— PMC7265341, “Quantifying CDK inhibitor selectivity in live cells” (Nature Communications, 2020)
